Data set [1] concerns the target T1, adenylosuccinate synthase (Oryctolagus cuniculus, UniProt G1TGN8).
T1 sequence (G1TGN8 with tags, fused parts or gaps): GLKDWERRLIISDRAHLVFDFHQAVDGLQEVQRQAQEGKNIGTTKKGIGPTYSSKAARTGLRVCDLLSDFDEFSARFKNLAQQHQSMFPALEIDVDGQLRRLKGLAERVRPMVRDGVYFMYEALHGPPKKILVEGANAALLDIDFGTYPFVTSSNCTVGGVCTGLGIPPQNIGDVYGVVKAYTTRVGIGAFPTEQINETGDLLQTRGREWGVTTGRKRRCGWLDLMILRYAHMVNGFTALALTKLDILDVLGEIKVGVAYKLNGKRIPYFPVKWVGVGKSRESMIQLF
Description: adenylosuccinate synthase inhibition (change of absorbance at 285 nm with time). Format: biochemical. The source says: As existing adenylosuccinate synthase inhibitors, hydantocidin-5'-monophosphate and hadacidin were chosen and compared for their level of enzyme inhibitory activity. Hydantocidin-5'-monophosphate was synthesized by debenzylating an intermediate synthesized by the method of Mio et al. (Tetrahedron, 47, 2133-2144, 1991), [2R, 3R, 4R, 5S]-6-N-acetyl-2-benzyloxymethyl-3,4-isopropylidene-1-oxa-6,8-diazaspiro[4,4]nonane-7,9-dione (Compound 24) and then converting it into its diphenyl phosphate ester, followed by deacetonidation, deacetylation and dephenylation by catalytic reduction. Hadacidin was synthesized by the method of Jahngen-Rossomand (Synth. Commun. 12, 601-606, 1982). Adenylosuccinate synthase was purified from rabbit muscles by the method of Fischer et al. (Methods in Enzymol. LI, 207-213). Each inhibitor (hydantocidin-5'-monophosphate or hadacidin at a final concentration of 1µM-1mM) (10 µl) and a substrate solution (50 mM HEPES, pH 7.3, 1 mM MgCl2, 0.2 mM GTP, 0.2 mM IMP, 2.5 mM Asp [each final concentration]) (60 µl) were added to adenylosuccinate synthase (10 µl) added dropwise into a microspectroscopic cell, and mixed together, then the microspectroscopic cell was immediately set in a spectrophotometer BECKMAN DU650 (Beckman) to determine change of absorbance at 285 nm with time for a period of 2 to 5 minutes after the reaction was started.

Data set [2] deals with Raji cells having MTAP activity. Description: cell growth, MTT method. The class given is cell-based, human. The protocol:
(§1) CCRF-CEM cells lacking MTAP activity and Raji cells having MTAP activity suspended in a modified MEM Zn^++ medium (GIBCO BRL) containing 10% dialyzed horse serum (GIBCO BRL) pretreated at 56°C for 30 minutes were plated on 96-well microplates at concentrations of 1.5 x 10^5 cells/ml and 5 x 10^4 cells/ml, respectively, and adenylosuccinate synthase inhibitors (hydantocidin-5'-monophosphate and hadacidin at a final concentration of 1 µM-1mM) were added to 100 µl/well in the presence or absence of a substrate for MTAP, MTA (final concentration 10 µM). After incubation in the presence of 5% CO2 at 37°C for 2 days, the survival cell number was counted by the MTT method (J. Immunol. Methods, 65, 55-63, 1983) (using Cell Titer 96® Aqueous Non-Radioactive Cell Proliferation Assay [Promega]) to assess effects on cell growth.

Data set [3] relates to CCRF-CEM cells lacking MTAP activity. The data set can be described thus: cell growth, MTT method. Format: cell-based, human. The method, then: as §1
Data set [4] relates to human glioma cell line A-172 lacking MTAP activity. The data set can be described thus: cell growth, MTT method, 3 days incubation. Format: cell-based. The following applies: Fig. 4A. The method, then:
(§2) Cell extracts were reacted with [8-^14C] MTA, a substrate for MTAP, and the reaction solutions were partially developed by thin-layer chromatography to visualize spots corresponding to [^14C] adenine produced by the action of MTAP in the presence of [8-^14C] […] The same experiment was performed as for Raji cells in Fig. 3 except that incubation was performed for 3 days. […] The same experiment was performed as for Raji cells in Fig. 3 except that incubation was performed for 3 days and that [^3H] thymidine uptake for 5 hours was assayed. […]
as §1
A general note: Tetrazolium dyes change colour on reduction, which living cells bring about.

Data set [5] concerns human glioma cell line T98G having MTAP activity. Description: cell growth, MTT method, 3 days incubation. The following applies: Fig. 4B. The class given is cell-based. The protocol:
as §2, §1

Data set [6] deals with human non-small cell lung cancer cell line A549. Description: cell growth, [3H] thymidine uptake. The class given is cell-based. The following applies: 3 days incubation; [3H] thymidine uptake for 5 hours; Fig. 5A. The protocol: as §2, §1
Data set [7] has as its system human pancreatic cancer cell line BxPC-3. The data set can be described thus: cell growth, [3H] thymidine uptake. Format: cell-based. The following applies: 3 days incubation; [3H] thymidine uptake for 5 hours; Fig. 5B. The method, then: as §2, §1
[8] abbreviates: absence of MTA, compared with CCRF-CEM in presence of MTA, 2 days.

Like-named read-outs stand apart in the source and are kept apart here.

Regarding `O=CN(O)CC(=O)O` [hadacidin], in data set [1] (enzyme purified from rabbit muscles; 0.2 mM GTP, 0.2 mM IMP, 2.5 mM Asp, pH 7.3; read-out: IC50 (inhibited adenylosuccinate synthase activity)), the 50% inhibitory concentration (IC50) was 10 µM.
As to `O=C1NC(=O)[C@@]2(N1)O[C@H](COP(=O)(O)O)[C@@H](O)[C@H]2O` [hydantocidin-5'-monophosphate], the cytotoxicity result in data set [2] (MTA added (final concentration 10 µM), 2 days incubation) is listed as “did not show cytotoxicity”. The “level of cytotoxicity in the absence of MTA” value in data set [2] (setting [8]) and in data set [3] (setting [8]) was “comparable” throughout. Also, the IC50 is 30 µM in data set [3] (Homo sapiens, CCRF-CEM, 48 h, read-out: IC50 (cytotoxicity)) and 0.03 µM in data set [1] (read-out: IC50 (inhibited adenylosuccinate synthase activity); enzyme purified from rabbit muscles; 0.2 mM GTP, 0.2 mM IMP, 2.5 mM Asp, pH 7.3). Moreover, the toxicity result in data set [4] and in data set [5] was “showed selective toxicity” each time. The growth inhibitory effects entry in data set [6] and in data set [7] was “showed growth inhibitory effects” in each case.

A word on the IC50: it is the concentration that gives 50% inhibition.

(Values after patent publication EP0974362A1, “DRUGS CONTAINING ENZYME INHIBITORS AS THE ACTIVE INGREDIENT” (CHUGAI SEIYAKU KABUSHIKI KAISHA, priority 1997, dated 1998).)
